Assays:
Format in all cases: in vivo
[1] = test system: barnyardgrass (Echinochloa crus-galli); assay: Test A preemergence, barnyardgrass; conditions: 0 to 100 scale, 0 no effect, 100 complete control
In short: (§1)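 Visual injury scores (0 = no effect, 100 = complete control) were assigned roughly 10 d after treatment by comparison with untreated controls. Chemicals, formulated in a non-phytotoxic solvent mixture containing surfactant, were applied as a preemergence directed soil spray or postemergence to one- to two-leaf plants 2 to 10 cm tall.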

[2] = test system: crabgrass, large (large crabgrass, Digitaria sanguinalis); assay: Test A preemergence, crabgrass, large; conditions: 0 to 100 scale, 0 no effect, 100 complete control
Excerpt: (§2) Seeds of plant species selected from barnyardgrass (Echinochloa crus-galli), crabgrass, large (large crabgrass, Digitaria sanguinalis), kochia (Kochia scoparia), ragweed (common ragweed, Ambrosia elatior), morningglory (Ipomoea spp.), velvetleaf (Abutilon theophrasti), ryegrass, Italian (Italian ryegrass, Lolium multiflorum), foxtail, giant (giant foxtail, Setaria faberii), wheat (Triticum aestivum), corn (Zea mays), and pigweed (Amaranthus retroflexus), were planted into a blend of loam soil and sand and treated preemergence with a directed soil spray using test chemicals formulated in a non-phytotoxic solvent mixture which included a surfactant. At the same time, plants selected from these crop and weed species and also blackgrass (Alopecurus myosuroides), and galium (catchweed bedstraw, Galium aparine), were planted in pots containing the same blend of loam soil and sand and treated with postemergence applications of test chemicals formulated in the same manner. Plants ranged in height from 2 to 10 cm and were in the one- to two-leaf stage for the postemergence treatment. Treated plants and untreated controls were maintained in a greenhouse for approximately 10 d, after which time all treated plants were compared to untreated controls and visually evaluated for injury. Plant response ratings, summarized in Table A, are based on a 0 to 100 scale where 0 is no effect and 100 is complete control. A dash (-) response means no test result.

[3] = test system: morningglory (Ipomoea spp.); assay: Test A preemergence, morningglory; conditions: 0 to 100 scale, 0 no effect, 100 complete control
Excerpt: as §2

[4] = test system: velvetleaf (Abutilon theophrasti); assay: Test A preemergence, velvetleaf; conditions: 0 to 100 scale, 0 no effect, 100 complete control
Excerpt: as §2

[5] = test system: foxtail, giant (giant foxtail, Setaria faberii); assay: Test A preemergence, foxtail, giant; conditions: 0 to 100 scale, 0 no effect, 100 complete control
In short: as §1

[6] = test system: wheat (Triticum aestivum); assay: Test A preemergence, wheat; conditions: 0 to 100 scale, 0 no effect, 100 complete control
Excerpt: as §2

corn (Zea mays) [7] = assay: Test A preemergence, corn; conditions: 0 to 100 scale, 0 no effect, 100 complete control
Excerpt: as §2

[8] = test system: pigweed (Amaranthus retroflexus); assay: Test A preemergence, pigweed; conditions: 0 to 100 scale, 0 no effect, 100 complete control
In short: as §1

[9] = test system: barnyardgrass (Echinochloa crus-galli); assay: Test A postemergence, barnyardgrass; conditions: 0 to 100 scale, 0 no effect, 100 complete control
In short: as §1

[10] = test system: crabgrass, large (large crabgrass, Digitaria sanguinalis); assay: Test A postemergence, crabgrass, large; conditions: 0 to 100 scale, 0 no effect, 100 complete control
Excerpt: as §2

[11] = test system: morningglory (Ipomoea spp.); assay: Test A postemergence, morningglory; conditions: 0 to 100 scale, 0 no effect, 100 complete control
Excerpt: as §2

[12] = test system: velvetleaf (Abutilon theophrasti); assay: Test A postemergence, velvetleaf; conditions: 0 to 100 scale, 0 no effect, 100 complete control
Excerpt: as §2

[13] = test system: foxtail, giant (giant foxtail, Setaria faberii); assay: Test A postemergence, foxtail, giant; conditions: 0 to 100 scale, 0 no effect, 100 complete control
In short: as §1

[14] = test system: wheat (Triticum aestivum); assay: Test A postemergence, wheat; conditions: 0 to 100 scale, 0 no effect, 100 complete control
In short: as §1

corn (Zea mays) [15] = assay: Test A postemergence, corn; conditions: 0 to 100 scale, 0 no effect, 100 complete control
In short: as §1

[16] = test system: pigweed (Amaranthus retroflexus); assay: Test A postemergence, pigweed; conditions: 0 to 100 scale, 0 no effect, 100 complete control
In short: as §1

[17] = test system: barnyardgrass (Echinochloa crus-galli); assay: Test B flooded paddy test, barnyardgrass; conditions: Flood, 250 g ai/ha; scale 0 to 100 (0 no effect, 100 complete control); 13 to 15 d
In short: (§3)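 Plants grown to the 2-leaf stage. At treatment, pots were flooded to 3 cm above the soil, compound was applied directly to the paddy water, and that depth was held throughout. After 13 to 15 d in the greenhouse, response was rated visually against controls on a 0 (no effect) to 100 (complete control) scale.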

[18] = test system: ducksalad (Heteranthera limosa); assay: Test B flooded paddy test, ducksalad; conditions: Flood, 250 g ai/ha; scale 0 to 100 (0 no effect, 100 complete control); 13 to 15 d
In short: as §3

rice (Oryza sativa) = assay: Test B flooded paddy test, rice; conditions: Flood, 250 g ai/ha; scale 0 to 100 (0 no effect, 100 complete control); 13 to 15 d
In short: as §3

[19] = test system: sedge, umbrella (small-flower umbrella sedge, Cyperus difformis); assay: Test B flooded paddy test, sedge, umbrella; conditions: Flood, 250 g ai/ha; scale 0 to 100 (0 no effect, 100 complete control); 13 to 15 d
In short: as §3

| Compound | Plant response rating, Barnyardgrass ([1]; 125 g ai/ha) | Plant response rating, Barnyardgrass ([1]; 500 g ai/ha) | Plant response rating, Crabgrass, Large ([2]; 125 g ai/ha) | Plant response rating, Crabgrass, Large ([2]; 500 g ai/ha) | Plant response rating, Morningglory ([3]; 125 g ai/ha) | Plant response rating, Morningglory ([3]; 500 g ai/ha) | Plant response rating, Velvetleaf ([4]; 125 g ai/ha) | Plant response rating, Velvetleaf ([4]; 500 g ai/ha) | Plant response rating, Foxtail, Giant ([5]; 125 g ai/ha) | Plant response rating, Foxtail, Giant ([5]; 500 g ai/ha) | Plant response rating, Wheat ([6]; 125 g ai/ha) | Plant response rating, Wheat ([6]; 500 g ai/ha) | Plant response rating, Corn (corn (Zea mays) [7]; 125 g ai/ha) | Plant response rating, Corn (corn (Zea mays) [7]; 500 g ai/ha) | Plant response rating, Pigweed ([8]; 125 g ai/ha) | Plant response rating, Pigweed ([8]; 500 g ai/ha) | Plant response rating, Barnyardgrass ([9]; 125 g ai/ha) | Plant response rating, Barnyardgrass ([9]; 500 g ai/ha) | Plant response rating, Crabgrass, Large ([10]; 125 g ai/ha) | Plant response rating, Crabgrass, Large ([10]; 500 g ai/ha) | other results |
| --- | --- | --- | --- | --- | --- | --- | --- | --- | --- | --- | --- | --- | --- | --- | --- | --- | --- | --- | --- | --- | --- |
| O=C(Nc1ccccc1C(F)(F)F)N1C(=O)OCC1c1ccc(F)c(F)c1 (stereo not drawn) [Compound 1] | 0 | 0 | 30 | 70 | 0 | 0 | 0 | 0 | 0 | 0 | 0 | 0 | 0 | 0 | 0 | 0 | 0 | 0 | 0 | 20 | Plant response rating, Morningglory ([11]; 125 g ai/ha): 0; Plant response rating, Morningglory ([11]; 500 g ai/ha): 0; Plant response rating, Velvetleaf ([12]; 125 g ai/ha): 0; Plant response rating, Velvetleaf ([12]; 500 g ai/ha): 0; Plant response rating, Foxtail, Giant ([13]; 125 g ai/ha): 0; Plant response rating, Foxtail, Giant ([13]; 500 g ai/ha): 0; Plant response rating, Wheat ([14]; 125 g ai/ha): 0; Plant response rating, Wheat ([14]; 500 g ai/ha): 0; Plant response rating, Corn (corn (Zea mays) [15]; 125 g ai/ha): 0; Plant response rating, Corn (corn (Zea mays) [15]; 500 g ai/ha): 0; Plant response rating, Pigweed ([16]; 125 g ai/ha): 0; Plant response rating, Pigweed ([16]; 500 g ai/ha): 0; Plant response rating, Barnyardgrass [17]: 0; Plant response rating, Ducksalad [18]: 0; Plant response rating, Rice (rice (Oryza sativa)): 0; Plant response rating, Sedge, Umbrella [19]: 0 |
| O=C(Nc1ccccc1Cl)N1C(=O)OCC1c1ccc(F)c(F)c1 (stereo not drawn) [Compound 2] | 0 | 0 | 40 | 80 | 0 | 0 | 0 | 0 | 0 | 30 | 0 | 0 | 0 | 0 | 0 | 0 | 0 | 0 | 0 | 0 | Plant response rating, Morningglory ([11]; 125 g ai/ha): 0; Plant response rating, Morningglory ([11]; 500 g ai/ha): 0; Plant response rating, Velvetleaf ([12]; 125 g ai/ha): 0; Plant response rating, Velvetleaf ([12]; 500 g ai/ha): 0; Plant response rating, Foxtail, Giant ([13]; 125 g ai/ha): 0; Plant response rating, Foxtail, Giant ([13]; 500 g ai/ha): 0; Plant response rating, Wheat ([14]; 125 g ai/ha): 0; Plant response rating, Wheat ([14]; 500 g ai/ha): 0; Plant response rating, Corn (corn (Zea mays) [15]; 125 g ai/ha): 0; Plant response rating, Corn (corn (Zea mays) [15]; 500 g ai/ha): 0; Plant response rating, Pigweed ([16]; 125 g ai/ha): 0; Plant response rating, Pigweed ([16]; 500 g ai/ha): 0; Plant response rating, Barnyardgrass [17]: 0; Plant response rating, Ducksalad [18]: 0; Plant response rating, Rice (rice (Oryza sativa)): 0; Plant response rating, Sedge, Umbrella [19]: 0 |

Source: patent US11178873B2, “Cyclic N-carboxamide compounds useful as herbicides” (FMC CORPORATION, priority 2015, dated 2021)
